The test system of one assay is HT116 colon cancer cells. In words: Eight-day colony formation assay, HT116. It is filed as cell-based, human. On the procedure:
(§1) We sought to identify compounds that would inhibit the growth of cancer cells, but that also did so selectively. Inhibition of cancer cell growth is a highly sought after attribute of anticancer agents. This was assessed by measuring the ability of a compound to inhibit cell growth in eight-day colony formation assays, examining concentrations ranging from 0.017 to 40 μM. Breast, colon, lung and prostate cancer are four of the most common causes of cancer in the United States, are major causes of cancer cell death, and were examined.[64] Two cell lines for each cancer type were assessed: A549 (adenocarcinoma) and H226 (squamous carcinoma) for lung, MCF-7 (estrogen receptor [ER] positive) and MDA-MB-231 (ER negative) for breast, LNCaP (androgen receptor [AR] positive) and PC3-M (AR negative) for prostate, and HCT116 (wild type p53, mutated KRAS) and HT29 (p53 mutant) for colon.[65]
(§2) In considering effect on cancer cells, for each compound and each cell line tested we calculated the efficacy ratio, i.e., efficacy ratio = (percent of remaining cancer cell colonies)/(percent of remaining bone marrow colonies), at 8 days after treatment with 40 μM compound (S4 Fig). We considered those with an efficacy ratio below 0.5 as active and at least partially selective. The stringency of this is highlighted by considering the effect of 5FU on colon cancer, where it is frequently used clinically in proven curative settings, as well as proven life prolonging settings.[70, 71] […] Even at 5.7 μM, where 5FU is toxic to bone marrow, with hematopoietic colony formation at 38% of control, the efficacy ratio for HT29 cells has only dropped to 0.52. […] It can be seen that compounds segregate to protein sites. Specifically, of 10 compounds meeting this activity criteria (i.e., efficacy ratio <0.5), 3 were directed at the Dxr2 site, 3 at FolC2, 2 at FolC1, 1 at Dxr1 and 1 at TYLT.
(§3) Eight-day colony formation assays of cancer cells were performed as described by us.[87] Briefly, 0.5–1.0 × 10^3 cells were seeded into a 12 well plate, after 24 hours compound added and eight days later colonies (of 3 or more cells) were scored after trypan blue staining. Conditions were in replicates of N = 2. All compounds were stored under desiccated conditions in a sealed container at minus 20°C upon arrival. One day prior to use, they were placed into DMSO, stored at […] as stock solutions, thawed just prior to use, and not reused.

The subject of assay [1] is human melanoma SK-MEL-5 cells. The assay can be described thus: Eight-day colony formation assay, SK-MEL-5. It is filed as cell-based. Here is the method:
We next evaluated the effect of Dxr2-017 on human melanoma M14 and SK-MEL-5 cell lines in eight-day assays (Fig 8A).
Fig 8. Dxr2-017 inhibits melanoma cell growth through induction of anoikis. (A) Inhibition of melanoma cell growth. Cells were treated with different concentrations of Dxr2-017 and formation of colonies at eight days depicted. Data are expressed as percent of untreated control and are the mean ± SEM (N=3 replicates) of a single experiment. (B) No effect on cycle progression. M14 and SK-MEL-5 cells were treated for 8 days with 20 and 50 nM Dxr2-017, respectively, and phase of cell cycle determined by flow cytometry. Data are the mean ± SEM (N=3). *denotes P-value ≤0.05. (C) Transition to floating cells. Cells were treated for three days with different Dxr2-017 concentrations. Depicted are representative light photomicrographs at 20X; scale bar is150 μm. Blue and green arrows denote adherent and floating cells, respectively. (D) Cleaved caspase 3 is induced in floating cells. […]
Eight-day colony formation assays of cancer cells were performed as described by us.[87] Briefly, 0.5–1.0 × 10^3 cells were seeded into a 12 well plate, after 24 hours compound added and eight days later colonies (of 3 or more cells) were scored after trypan blue staining. […]

Assay [2] deals with human breast, prostate, colon and lung cancer cells. The assay can be described thus: Eight-day colony formation assays, summary across the cancer cell line panel. It is filed as cell-based. Here is the method: as §1, §2, §3
In assay [3] the test system is SK-MEL-5 cells. In words: Cell cycle analysis by flow cytometry, SK-MEL-5. It is filed as cell-based, human. The conditions noted are these: 50 nM, eight days. Here is the method:
(§4) Fig 8. Dxr2-017 inhibits melanoma cell growth through induction of anoikis. (A) Inhibition of melanoma cell growth. Cells were treated with different concentrations of Dxr2-017 and formation of colonies at eight days depicted. Data are expressed as percent of untreated control and are the mean ± SEM (N=3 replicates) of a single experiment. (B) No effect on cycle progression. M14 and SK-MEL-5 cells were treated for 8 days with 20 and 50 nM Dxr2-017, respectively, and phase of cell cycle determined by flow cytometry. Data are the mean ± SEM (N=3). *denotes P-value ≤0.05. (C) Transition to floating cells. Cells were treated for three days with different Dxr2-017 concentrations. Depicted are representative light photomicrographs at 20X; scale bar is150 μm. Blue and green arrows denote adherent and floating cells, respectively. (D) Cleaved caspase 3 is induced in floating cells. Cells were treated for 3 days, cell lysate from only adherent cells, or from adherent and floating cells combined, was probed by Western blot for cleaved caspase 3. All experiments were repeated at separate times, yielding similar results.
A total of 1 × 10^4 M14 cells and 1 × 10^4 SK-MEL-5 cells were seeded into 10 cm culture dishes. […] Cells were analyzed by flow cytometry (FACSCalibur3 analyzer, BD Biosciences), and the percentage of cells within G0/G1, S, and G2/M phases were determined via analysis using Modfit LT 4.0.5.
(In flow cytometry, cells or beads pass a laser one at a time.)

The next assay has as its system M14 cells. The assay can be described thus: Western blot for cleaved caspase 3, M14. It is filed as cell-based, human. Conditions: 3 days, up to 10 μM. Here is the method: as §4
(§5) We then assessed whether Dxr2-017 was inducing apoptosis. […] These findings raised the possibility that Dxr2-017 was inducing anoikis, a process in which programmed cell death occurs upon cell detachment.[72, 73] […]
In general terms: Immunoblotting shows a protein as a band on a membrane.

Assay [4] deals with SK-MEL-5 cells. In words: Western blot for cleaved caspase 3, SK-MEL-5. The conditions noted are these: 3 days, up to 20 μM. It is filed as cell-based, human. Here is the method: as §4, §5

For `c1ccc2sc(-c3ccc(CNc4ccc5nnnn5n4)o3)nc2c1` [Dxr2-017], the “efficacy ratio (cancer cell colonies to bone marrow colonies at 8 days)” value is given as 0.69 in the assay on HT116 colon cancer cells (5.7 μM) and 0.08 with HT116 colon cancer cells (40 μM). The IC50 (commonly the concentration needed to halve the response being measured) in assay [1] (Homo sapiens, 192 h, SK-MEL-5, eight-day assay, mean ± SEM) worked out at 51.7 ± 16.4 nM. For the same compound, the “fold efficacy versus bone marrow stem cells” value in assay [1] (SK-MEL-5 IC50 compared to 40 μM eight-day bone marrow treatment) is reported as over 750 fold. The “relative activity for a given compound, % (% of cells tested where ratio is <0.5)” value in assay [2] (5.7 μM) is reported as 75%; in assay [2] (40 μM), 100%. Moreover, the “mean efficacy ratio for cells where the efficacy ratio is below 0.5” value in assay [2] (5.7 μM, mean ± SEM) came out at 0.25 ± 0.091. In assay [2] (40 μM, mean ± SEM), the “mean efficacy ratio for cells/compounds where the efficacy ratio is below 0.5” value came out at 0.03 ± 0.01. Moreover, the “change in cell cycle parameters” value with SK-MEL-5 cells [3] is listed as “little-to-no change in cell cycle parameters”. Further, the “cleaved caspase 3, adherent cells only” value with M14 cells and with SK-MEL-5 cells [4] was “did not detect any induction of cleaved caspase 3” in each case. Moreover, the “cleaved caspase 3, floating and adherent cells combined” value with M14 cells and with SK-MEL-5 cells [4] was “clear formation” throughout.

The values above are taken from article doi:10.1101/2024.05.17.594634, “Protein Structure Inspired Drug Discovery” (bioRxiv, 2024).
